SMILES strings stand for the structures.

The text below walks through data of patent publication EP4755886A1 (Chengdu Chipscreen Pharmaceutical Ltd., priority 2023, dated 2025).

One series has as its system MTAP^-/- HCT-116 cells. In words: Cell proliferation (MTS), MTAP-/- HCT-116. It is filed as cell-based, human. Conditions: for Selectivity: HCT116 WT IC50 relative to HCT116 MTAP-/- IC50; for IC50: Homo sapiens, 240 h, MTAP-/- HCT-116, 10 days with compound, MTS reading, read-out: IC50 HCT116 MTAP-/-. In a few lines: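 MTAP-/- (CRISPR/Cas9 biallelic knockout) or wild-type HCT-116 cells seeded at 100 cells/well, treated next day with 8-point 3-fold dilutions (top 20 µM) for 10 days at 37 °C, 5% CO2. Viability read by MTS; IC50 from four-parameter logistic fit of inhibition rate vs log concentration.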

Series [1] is described as follows: Human liver microsome stability. Conditions: pH 7.4; human liver microsomes 0.5 mg/mL, compound 1 µM, NADPH 1 mM, 37 °C. The format is in vitro ADME. How it is done: Experimental materials: human liver microsomes (purchased from BIOIVT);
PBS: 0.1 M KH2PO4 and K2HPO4 buffers, pH 7.4.
MgCl2: a certain amount of MgCl2 was weighed out and prepared into a 16 mM MgCl2 solution with PBS.
NADPH (Chinese name: reduced nicotinamide adenine dinucleotide phosphate, purchased from Sigma, Cat. No.: 481973-500 mg): a certain amount of NADPH was weighed out and a 4 mM solution of NADPH was prepared with a 16 mM MgCl2 solution, and the final incubation concentration was 1 mM.
Compounds: 4 µM solutions of the test compounds and positive compounds were prepared with PBS, and the final incubation concentration was 1 µM.
Liver microsomes (purchased from BIOIVT, Cat. No.: X008070): the liver microsomes were diluted to […] with PBS, and the final incubation concentration was 0.5 mg/mL.
The prepared test compound or positive compound was added to a test tube, and then the prepared NADPH was added. The mixture was mixed well. The mixture was pre-incubated in a thermostat incubator at 220 rpm at 37 °C for 5 min, and the prepared liver microsomes were added to start the reaction. All steps were performed in replicate wells. At 0 min, 15 min, 30 min, 45 min, and 60 min, a certain volume of glacial acetonitrile solution containing an internal standard was added to the corresponding tube to precipitate the protein. The mixture was vortexed for 5 min with shaking, and then centrifuged at 4000 rpm for 10 min. […] The samples were analyzed by LC-MS/MS.
The concentrations (peak area ratios) of the example compounds were determined by LC-MS/MS. Rate constants were obtained by plotting "Ln (residual amount of compound %)" versus "incubation time" in Excel, thereby calculating the half-lives and intrinsic clearances of the drugs and providing a basis for the prediction of the in-vivo clearance.
[formula] CLH = CLint × fu × Qh /(CLint×fu+Qh) [formula]
Stability in human liver microsomes

Another series has as its system wild-type HCT-116 cells. Description: Cell proliferation (MTS), wild-type HCT-116. The format is cell-based. Conditions: Homo sapiens, 240 h; wild-type HCT-116, 10 days with compound, MTS reading; read-out: IC50 HCT116 WT. In a few lines: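 Wild-type HCT-116 cells were seeded at 100 cells/well in McCoy's 5A/10% FBS. From day 1 they were treated with compound in 3-fold dilutions (initial 20 µM, 8 points) for 10 days at 37° C. Proliferation was read by MTS on day 11, and IC50 was obtained from a four-parameter logistic fit.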

The next series can be described thus: PK experiment in mice. The note with it: female, BALB/c, mouse, plasma, po, 10 mg/kg.
The target of a further series is T1, hERG (Homo sapiens, UniProt Q12809).
T1 construct: purchased ThermoFisher Scientific PV5365
T1 sequence (Q12809 whole entry): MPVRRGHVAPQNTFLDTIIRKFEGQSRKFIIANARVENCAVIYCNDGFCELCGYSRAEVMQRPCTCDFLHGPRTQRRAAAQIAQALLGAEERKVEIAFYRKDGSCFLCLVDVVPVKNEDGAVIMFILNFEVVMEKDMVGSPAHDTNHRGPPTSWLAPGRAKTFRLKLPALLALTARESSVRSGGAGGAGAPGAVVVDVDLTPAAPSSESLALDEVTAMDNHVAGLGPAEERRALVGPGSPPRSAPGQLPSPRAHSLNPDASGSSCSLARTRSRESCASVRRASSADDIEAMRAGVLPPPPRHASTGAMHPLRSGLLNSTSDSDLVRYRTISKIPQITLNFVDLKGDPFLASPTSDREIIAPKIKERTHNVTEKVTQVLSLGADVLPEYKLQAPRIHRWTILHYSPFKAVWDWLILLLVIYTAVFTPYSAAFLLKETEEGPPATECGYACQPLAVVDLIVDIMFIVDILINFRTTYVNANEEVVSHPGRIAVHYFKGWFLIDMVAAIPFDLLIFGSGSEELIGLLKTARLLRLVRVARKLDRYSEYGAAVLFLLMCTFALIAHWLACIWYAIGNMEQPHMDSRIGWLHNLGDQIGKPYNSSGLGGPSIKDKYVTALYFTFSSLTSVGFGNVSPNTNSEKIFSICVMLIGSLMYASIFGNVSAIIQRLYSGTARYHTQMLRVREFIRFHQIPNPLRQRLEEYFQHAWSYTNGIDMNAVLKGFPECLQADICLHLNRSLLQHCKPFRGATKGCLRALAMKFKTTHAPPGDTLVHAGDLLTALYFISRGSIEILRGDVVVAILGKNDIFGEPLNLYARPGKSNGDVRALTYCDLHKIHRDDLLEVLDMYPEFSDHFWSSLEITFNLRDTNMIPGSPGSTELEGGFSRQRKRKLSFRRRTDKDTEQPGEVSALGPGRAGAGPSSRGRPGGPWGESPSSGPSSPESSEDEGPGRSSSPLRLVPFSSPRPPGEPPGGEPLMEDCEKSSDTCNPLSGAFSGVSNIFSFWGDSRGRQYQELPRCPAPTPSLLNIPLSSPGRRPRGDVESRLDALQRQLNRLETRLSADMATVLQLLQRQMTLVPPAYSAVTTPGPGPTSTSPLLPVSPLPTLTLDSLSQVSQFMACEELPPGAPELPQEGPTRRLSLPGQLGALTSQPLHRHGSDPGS
In words: hERG test (Predictor hERG Fluorescence Polarization Assay Kit). It is filed as binding. The note with it: for inhibition at 3.5 h, 10 µM: human, probe Predictor hERG Tracer Red, 10 µM test substance, three duplicate wells; for IC50: only 10 µM tested. The procedure: Predictor™ hERG Fluorescence Polarization Assay Kit (ThermoFisher Scientific, PV5365).
The procedures in the kit instructions were followed: 4× Predictor™ hERG Tracer Red, 4× E-4031, and 4× test substance solutions (final assay concentration: 10 µM) were prepared in advance. 5 µL Predictor™ hERG FP Assay Buffer and 5 µL Predictor™ hERG Membrane were added sequentially to the Assay Blank group in a 384-well plate. 2.5 µL Predictor™ hERG FP Assay Buffer, 2.5 µL of 4× E-4031, and 2.5 µL of 4× test substance were added to the negative control group, the positive control group, and the test substance group, respectively, and then 5 µL Predictor™ hERG Membrane and 2.5 µL of 4× Predictor™ hERG Tracer Red were sequentially added. The total volume of the experimental system was 10 µL, and three duplicate wells were set for each group. After loading, the plate was gently tapped to mix well and incubated at room temperature (25 °C) in the dark for 3.5 h. After the incubation was completed, the fluorescence polarization value mP was measured on a microplate reader, and G Factor was 2.14.
The inhibition rate of the test substance was calculated using the following formula: [formula]

A further series is described as follows: PK experiment in rats. It is filed as in vivo. The note with it: rat; SD male rats, PO 10 mg/kg, vehicle 0.5% MC/0.2% Tween 80, plasma. The procedure: The samples were analyzed by LC-MS/MS. […] Table 6. Pharmacokinetic parameters for rats

Protocol for PK experiment in mice: Experimental materials: the experimental animals were healthy adult female BALB/c mice (provided by Sichuan Vital River Laboratory Animal Technology Co., Ltd.).
Administration mode and sample collection in mice: BALB/c female mice received oral intragastrical administration (10 mg/kg, vehicle: 0.5% methylcellulose/0.2% Tween 80), and 60 µL of whole blood from the venous plexus of the fundus of the mice at different time points was collected at 0.25 h, 0.5 h, 1 h, 2 h, 4 h, 6 h, 8 h, and 24 h after administration and centrifuged at 4000 rpm for 6 min to collect plasma.
10 µL of mouse plasma sample was added to 190 µL of acetonitrile solution containing an internal standard to precipitate protein. The mixture was vortexed for 10 min and centrifuged at 4000 rpm for 10 min. The supernatant was collected and added to a 96-well plate. The samples were analyzed by LC-MS/MS. The drug concentrations in the plasma of mice at different time points after intragastric administration of the example compounds were measured by an LC-MS/MS method, and the related pharmacokinetic parameters were calculated, such that the pharmacokinetic behavior of the compounds in the mice was studied, and the pharmacokinetic characteristics were evaluated.

In general, half-life refers to the time in which the quantity being followed falls by half. By AUC(0-t) is commonly meant exposure summed from dosing to a finite time, without extrapolation to infinity. For orientation: Cmax means the peak of the concentration-time curve. In the case of `CN(C(=O)c1ccc2nc(N)c3cnn(C)c3c2c1)C1COc2cc(C#Cc3cnn(C4CC4)c3)ccc21` (centres unmarked) [Compound 4, 4-amino-N-(6-((1-cyclopropyl-1H-pyrazol-4-yl)ethynyl)-2,3-dihydrobenzofuran-3-yl)-N,1-dimethyl-1H-pyrazolo[4,3-c]quinoline-8-carboxamide], in the series with MTAP^-/- HCT-116 cells, the Selectivity stood at 165 and the IC50 worked out at 8 nM. For the same molecule, the half-life at 1 µM in series [1] was found to be 169 min. Further, the IC50 in the series on wild-type HCT-116 cells is 1320 nM. In “PK experiment in mice”, this molecule returned an AUC(0-t) of 9150 ± 2240 ng·h/mL and a Cmax of 634 ± 71 ng/mL.

For orientation: inhibition means how much of the control response was suppressed. On to `CN(C(=O)c1cc2c(cc1F)nc(N)c1cnn(C)c12)[C@@H]1COc2cc(C#Cc3cnn(C4CC4)c3)ccc21` [Compound 12A, (S)-4-amino-N-(6-((1-cyclopropyl-1H-pyrazol-4-yl)ethynyl)-2,3-dihydrobenzofuran-3-yl)-7-fluoro-N,1-dimethyl-1H-pyrazolo[4,3-c]quinoline-8-carboxamide], for which, in the series with MTAP^-/- HCT-116 cells, the Selectivity is recorded as 115 and the IC50 is 3.7 nM. At hERG, the inhibition at 3.5 h, 10 µM was 22.4% and the IC50 was more than 10000 nM. The IC50 in the series on wild-type HCT-116 cells was 426 nM. In “PK experiment in mice”, this molecule came in with an AUC(0-t) of 26900 ± 7450 ng·h/mL and a Cmax of 2670 ± 421 ng/mL.

Consider `CN(C(=O)c1cc2c3c(c(N)nc2cc1F)COC3)[C@@H]1COc2cc(C#Cc3cnn(C4CC4)c3)ccc21` [Compound 16A, (S)-4-amino-N-(6-((1-cyclopropyl-1H-pyrazol-4-yl)ethynyl)-2,3-dihydrobenzofuran-3-yl)-7-fluoro-N-methyl-1,3-dihydrofuro[3,4-c]quinoline-8-carboxamide], for which, in the series with MTAP^-/- HCT-116 cells, the Selectivity is given as 84 and the IC50 worked out at 13.9 nM. In addition, in the series “PK experiment in rats”, the area under the curve AUC(0-t) was determined as 13700 ± 2780 ng·h/mL and the peak concentration (Cmax) worked out at 1280 ± 270 ng/mL. In the series on wild-type HCT-116 cells, the IC50 turned out to be 1160 nM. In the series “PK experiment in mice”, this molecule registered an area under the curve AUC(0-t) of 23300 ± 5520 ng·h/mL and a peak concentration (Cmax) of 1600 ± 352 ng/mL.

`CN(C(=O)c1cc2c3c(c(N)nc2cc1F)COC3)C1COc2cc(C#Cc3cnn(C)c3)ccc21` (centres unmarked) [Compound 39, 4-amino-7-fluoro-N-methyl-N-(6-((1-methyl-1H-pyrazol-4-yl)ethynyl)-2,3-dihydrobenzofuran-3-yl)-1,3-dihydrofuro[3,4-c]quinoline-8-carboxamide]: in the series on MTAP^-/- HCT-116 cells, the Selectivity is given as 148 and the IC50 amounted to 20 nM. Further, at hERG, the inhibition at 3.5 h, 10 µM is 23.8% and the IC50 is more than 10000 nM. Besides, the IC50 with wild-type HCT-116 cells was found to be 2960 nM. In the series “PK experiment in mice”, this molecule had an AUC(0-t) of 20900 ± 8400 ng·h/mL and a Cmax of 2670 ± 180 ng/mL.

For the molecule `CN(C(=O)c1cc2c3c(c(N)nc2cc1Cl)COC3)C1COc2cc(C#Cc3cnn(C)c3)ccc21` (centres unmarked) [Compound 40, 4-amino-7-chloro-N-methyl-N-(6-((1-methyl-1H-pyrazol-4-yl)ethynyl)-2,3-dihydrobenzofuran-3-yl)-1,3-dihydrofuro[3,4-c]quinoline-8-carboxamide], in the series with MTAP^-/- HCT-116 cells, the Selectivity is 252. Also, the IC50 in the series with MTAP^-/- HCT-116 cells is 5.8 nM; on hERG, more than 10000 nM; in the series with wild-type HCT-116 cells it was 1460 nM. Moreover, the inhibition at 3.5 h, 10 µM on hERG is 22%.

In the case of `Cc1ncccc1C#Cc1ccc2c(c1)OCC2N(C)C(=O)c1cc2c(cc1F)nc(N)c1cnn(C)c12` (centres unmarked) [Compound 45, 4-amino-7-fluoro-N,1-dimethyl-N-(6-((2-methylpyridin-3-yl)ethynyl)-2,3-dihydrobenzofuran-3-yl)-1H-pyrazolo[4,3-c]quinoline-8-carboxamide], in the series on MTAP^-/- HCT-116 cells, the Selectivity was determined as 111 and the IC50 was 5.9 nM. Further, at hERG, the inhibition at 3.5 h, 10 µM was 21% and the IC50 is more than 10000 nM. Moreover, the IC50 with wild-type HCT-116 cells came to 654 nM.

Take `CN1CCn2c(C#Cc3ccc4c(c3)OC[C@H]4N(C)C(=O)c3cc4c(cc3F)nc(N)c3cnn(C)c34)cnc2C1` [Compound 46A, (S)-4-amino-7-fluoro-N,1-dimethyl-N-(6-((7-methyl-5,6,7,8-tetrahydroimidazo[1,2-a]pyrazin-3-yl)ethynyl)-2,3-dihydrobenzofuran-3-yl)-1H-pyrazolo[4,3-c]quinoline-8-carboxamide]: in the series with MTAP^-/- HCT-116 cells, the Selectivity amounted to 144 and the IC50 came out at 1.1 nM. Further, at hERG, the inhibition at 3.5 h, 10 µM is 43.9 ± 18.8% and the IC50 was more than 10000 nM. The IC50 with wild-type HCT-116 cells was 158 nM.

For the molecule `Cc1c(C#Cc2ccc3c(c2)OC[C@H]3N(C)C(=O)c2cc3c4c(c(N)nc3cc2Cl)COC4)cnn1C` [Compound 52A, (S)-4-amino-7-chloro-N-(6-((1,5-dimethyl-1H-pyrazol-4-yl)ethynyl)-2,3-dihydrobenzofuran-3-yl)-N-methyl-1,3-dihydrofuro[3,4-c]quinoline-8-carboxamide], in the series with MTAP^-/- HCT-116 cells, the Selectivity is listed as 152 and the IC50 is 3.2 nM. Further, at hERG, the inhibition at 3.5 h, 10 µM is 10.4 ± 49.1% and the IC50 was more than 10000 nM. Further, the IC50 in the series with wild-type HCT-116 cells was determined as 487 nM. In the series “PK experiment in mice”, the area under the curve AUC(0-t) was 14200 ± 2430 ng·h/mL and the highest level (Cmax) was 1500 ± 313 ng/mL.

Regarding `Cc1ncccc1C#Cc1ccc2c(c1)OC[C@H]2N(C)C(=O)c1cc2c3c(c(N)nc2cc1Cl)COC3` [Compound 57A, (S)-4-amino-7-chloro-N-methyl-N-(6-((2-methylpyridin-3-yl)ethynyl)-2,3-dihydrobenzofuran-3-yl)-1,3-dihydrofuro[3,4-c]quinoline-8-carboxamide], in the series on MTAP^-/- HCT-116 cells, the Selectivity is recorded as 125 and the IC50 worked out at 8 nM. Further, on hERG, the inhibition at 3.5 h, 10 µM is 14.2 ± 18% and the IC50 was more than 10000 nM. The IC50 with wild-type HCT-116 cells is 1000 nM. In the series “PK experiment in mice”, this molecule returned an AUC(0-t) of 10500 ± 2400 ng·h/mL and a maximum concentration (Cmax) of 1810 ± 195 ng/mL.

Turning to `CN(C(=O)c1cc2c(cc1F)nc(N)c1cnn(C)c12)[C@@H]1COc2cc(C#Cc3cnc4n3CCCC4)ccc21` [Compound 66A, (S)-4-amino-7-fluoro-N,1-dimethyl-N-(6-((5,6,7,8-tetrahydroimidazo[1,2-a]pyridin-3-yl)ethynyl)-2,3-dihydrobenzofuran-3-yl)-1H-pyrazolo[4,3-c]quinoline-8-carb oxamide], in the series with MTAP^-/- HCT-116 cells, the Selectivity is recorded as 150 and the IC50 amounted to 2 nM. For the same molecule, at hERG, the inhibition at 3.5 h, 10 µM is 14.2 ± 14% and the IC50 is more than 10000 nM. In the series on wild-type HCT-116 cells, the IC50 turned out to be 299 nM. In the series “PK experiment in mice”, this molecule came in with an AUC(0-t) of 23200 ± 3390 ng·h/mL and a maximum concentration (Cmax) of 3830 ± 533 ng/mL.

In the case of `CN(C(=O)c1cc2c3c(c(N)nc2cc1Cl)COC3)[C@@H]1COc2cc(C#Cc3cnn4c3CCCC4)ccc21` [Compound 91A, (S)-4-amino-7-chloro-N-methyl-N-(6-((4,5,6,7-tetrahydropyrazolo[1,5-a]pyridin-3-yl)ethynyl)-2,3-dihydrobenzofuran-3-yl)-1,3-dihydrofuro[3,4-c]quinoline-8-car boxamide], the Selectivity in the series on MTAP^-/- HCT-116 cells stood at 195. Besides, the figures for the IC50 with MTAP^-/- HCT-116 cells and with wild-type HCT-116 cells were 7.1 nM and 1390 nM, respectively. Besides, the half-life at 1 µM in series [1] was found to be 47.2 min.

`C#Cc1ccc2c(c1)OCC2N(C)C(=O)c1cc2c(cc1F)nc(N)c1cnn(C)c12` (centres unmarked) [Reference Example 1, reference compound] yielded a half-life at 1 µM in series [1] of 16.6 min.
